Experimental data as given in PubChem BioAssay (NCI).
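Cells were grown in 96-well plates and exposed to each compound for 48 hours at five concentrations; endpoints were interpolated linearly between bracketing concentrations, or set to the highest concentration if not reached. GI50: concentration for 50% inhibition of growth. TGI: total growth inhibition.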

Experiments:
Assay in all cases: NCI anticancer screen, dose series, 48 h
BT-549 breast = tested on: BT-549 breast
HOP-62 NSCLC = tested on: HOP-62 NSCLC
HS 578T breast = tested on: HS 578T breast
IGROV1 ovarian = tested on: IGROV1 ovarian
MALME-3M melanoma = tested on: MALME-3M melanoma
NCI-H23 lung = tested on: NCI-H23 lung
SK-MEL-5 melanoma = tested on: SK-MEL-5 melanoma
SN12C renal = tested on: SN12C renal
DMS 114 small cell lung = tested on: DMS 114 small cell lung

Row | SMILES | TGI (BT-549 breast) [µM] | TGI (HOP-62 NSCLC) [µM] | TGI (HS 578T breast) [µM] | TGI (IGROV1 ovarian) [µM] | TGI (MALME-3M melanoma) [µM] | TGI (NCI-H23 lung) [µM] | TGI (SK-MEL-5 melanoma) [µM] | TGI (SN12C renal) [µM] | GI50 (BT-549 breast) [µM] | GI50 (HOP-62 NSCLC) [µM] | GI50 (HS 578T breast) [µM] | GI50 (IGROV1 ovarian) [µM] | GI50 (MALME-3M melanoma) [µM] | GI50 (NCI-H23 lung) [µM] | GI50 (SK-MEL-5 melanoma) [µM] | GI50 (SN12C renal) [µM] | TGI (DMS 114 small cell lung) [µM]
1 | CC(C)c1ccc2nc3ccc(C(=O)NCCN(C)C)cn3c(=O)c2c1 | 29.6 | 31.4 | 35.6 | > 100 | 23.1 | 33.9 | 24.8 | 35.9 |  |  |  |  |  |  |  |  | 
2 | COc1ccc(Cl)cc1Nc1nc(C(F)(F)F)ccc1C(=O)NN | > 100 | > 75.4 | > 100 | > 85.1 | 30.2 | > 49.5 | > 20.4 | > 100 | 2.13 | 5.78 | 12.3 | 7.83 | 3.21 | 9.11 | 5.8 | 11.4 | 
3 | CSc1ccc(C2=Nn3c(nnc3-c3ccc(F)c(Cl)c3)SC2)cc1 | 50.5 | 19.5 | 36.6 | 44.4 | 10.9 | > 100 | 52.7 | 9.78 | 12.8 | 5.84 | 10 | 13.1 | 2.01 | 37.4 | 11.9 | 2.67 | 
4 | S=C(N/N=C/c1cc(Cl)cc(Cl)c1)NC12CC3CC(CC(C3)C1)C2 | > 100 | 5.93 | 7.41 | > 100 | 50.7 | > 100 | > 100 | > 100 | > 100 | 2.43 | 2.16 | 8.8 | 5.12 | 10.6 | > 100 |  | 
5 | Cc1cc(Cl)ccc1NC(=O)C(=O)Cc1nc2ccc(C(=O)c3ccccc3)cc2[nH]c1=O |  | > 100 |  | > 100 | > 100 | > 100 | > 100 | > 100 |  |  |  |  |  |  |  |  | > 100
6 | COC(=O)C1=CCON(c2ccccc2)C1c1ccccc1 (centres undefined) |  | > 100 |  | > 100 | > 100 | > 100 |  |  |  |  |  |  |  |  |  |  | > 100
7 | CON(C)C(=O)C(C)NC(=O)OCc1ccccc1 (centres undefined) | > 100 | > 100 | > 100 | > 100 | > 100 | > 100 | > 100 | > 100 |  |  |  |  |  |  |  |  | 
8 | COc1ccc(C2SC(N)=Nc3c2c(C)nn3C(=O)c2ccc(Cl)cc2)cc1OC (centres undefined) | > 10 | > 10 | > 10 | > 10 | > 10 | > 10 | > 10 | > 10 |  |  |  |  |  |  |  |  | 
9 | Cc1ccc(C(=O)Nc2ccc(CN3CCN(C)CC3)c(C(F)(F)F)c2)cc1C#Cc1cnc(N)c2ccc(F)cc12 | 4.33 | 3.44 | 1.37 | 0.501 | 0.597 | 2.24 | 2.18 | 0.73 | 1.31 | 0.753 | 0.301 | 0.0575 | 0.141 | 0.584 | 0.805 | 0.0793 | 
10 | C/C(=N\O)c1ccc(Nc2cc(-n3nnc4ccccc43)nc3ccccc23)cc1 | 14.8 | 21.4 | 20.4 | 42.5 | 36.1 | > 29.5 | 16.6 | 14.2 | 3.77 | 6.14 | 6.29 | 12.9 | 11.2 | 8.98 | 5.57 | 4.67 | 
11 | CC(=O)c1cccc(N(/C=C/C(=O)C(F)(F)F)CC(=O)c2ccc(Cl)cc2)c1 | > 100 | > 100 | > 100 | > 100 | > 100 | > 100 | > 100 | > 100 | > 100 | > 100 | > 100 | > 100 | > 100 | > 100 | > 100 | > 100 | 
12 | CC(C)(C)OC(=O)NCC(C#N)CNC(=O)OC(C)(C)C | > 100 | > 100 | > 100 | > 100 | > 100 | > 100 | > 100 | > 100 |  |  |  |  |  |  |  |  | 
13 | COc1cc(/C=C2\CN(C)CC3=C2Nc2nc(SC)[nH]c(=O)c2C3c2cc(OC)c(OC)c(OC)c2)cc(OC)c1OC (centres undefined) | 8.12 | 7.09 | > 100 | 12.6 | 9.44 | 15.8 | 11.9 | 15.5 | 2.98 | 2.46 | 8.88 | 3.1 | 2.82 | 3.54 | 2.83 | 2.98 | 
14 | CS(=O)(=O)c1ccc(Cl)c([N+](=O)[O-])c1 | 32.8 | 29.5 | 89.1 | 45.1 | 44.9 | 33.5 | 25.7 | 28.2 | 18.7 | 15.8 | 26 | 18 | 21 | 16.5 | 13 | 13.8 | 
15 | Fc1cccc(COc2ccc(Nc3ncnc4sc(-c5ccco5)cc34)cc2Cl)c1 | > 25 | > 25 | > 25 | > 25 | > 25 | > 25 | > 25 | > 25 | > 25 | > 25 | > 25 | > 25 | > 25 | > 25 | > 25 | > 25 | 
16 | C/C(=N/N(C=O)C[n+]1ccccc1)C(CN(CC(C)C)CC(C)C)C(=O)Nc1ccc(C)cc1C (centres undefined) |  | > 100 |  | > 100 | > 100 | > 100 | > 100 | > 100 |  |  |  |  |  |  |  |  | > 100
